Results published in patent US6784167B2, “17-beta-hydroxysteroid dehydrogenase-II inhibitors” (Bayer Pharmaceuticals Corporation, priority 2000, dated 2004).
pIC50: −log10 of the molar value. Read-outs that look alike come from different tables or passages of the source.

Columns and labels:
17-Beta HSD II Enzyme = target: T1, 17-Beta HSD II Enzyme (Homo sapiens, UniProt P37059); test: Primary assay: inhibition of 17-Beta HSD II enzyme (estradiol/NAD, PMS:MTS colorimetric readout at 490 nm); format: biochemical; details: Table 7, baculovirus-expressed recombinant HSD II, estradiol substrate
T1 construct: made in house; host or cells: insect cells (baculovirus)
T1 sequence (P37059 1-387): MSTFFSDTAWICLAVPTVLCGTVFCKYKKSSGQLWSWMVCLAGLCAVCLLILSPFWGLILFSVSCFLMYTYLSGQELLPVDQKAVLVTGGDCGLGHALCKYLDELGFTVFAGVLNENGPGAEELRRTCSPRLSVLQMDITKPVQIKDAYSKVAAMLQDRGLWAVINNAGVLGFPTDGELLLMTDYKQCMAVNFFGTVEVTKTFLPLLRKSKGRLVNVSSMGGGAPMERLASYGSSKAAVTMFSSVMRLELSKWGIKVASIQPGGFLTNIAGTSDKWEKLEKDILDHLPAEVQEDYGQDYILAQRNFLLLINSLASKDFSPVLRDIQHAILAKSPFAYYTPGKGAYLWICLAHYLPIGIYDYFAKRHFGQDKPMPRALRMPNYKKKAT
Experimental: HSD II protein purification: The method for purification of baculovirus-expressed HSD II was standardized as follows. The insect cell pellet containing recombinant HSD II was lysed in 2.5 volumes of lysis buffer (40 mM Tris, pH 7.5, 1 mM EDTA, 2 mM DTT, 10 uM NAD) containing 500 uM AEBSF, 10 ug/ml aprotinin, 1 uM pepstatin A, and 100 uM leupeptin. The pellet was nutated for 30 min in this buffer. Subsequently, the pellet was homogenized with 15 strokes using a glass and teflon potter. The volume was doubled with a 2× sucrose/NaCl solution (500 mM sucrose, 300 mM NaCl in lysis buffer). After centrifugation at 10,000×g for 30 min, the supernatant was decanted and stored at −20° C. The pellet was resuspended in 2.5 volumes of lysis buffer containing 250 mM sucrose and 150 mM NaCl. Homogenization was repeated (15 strokes) and the suspension was centrifuged again and the decanted supernatant was stored at −20° C. The pellet was resuspended with 2 times the original pellet volume in lysis buffer containing 150 mM NaCl and 1% Triton X-100. The suspension was nutated for 20 min and then homogenized with 5 strokes. Subsequently, the suspension was centrifuged at 30,000×g for 1 h and supernatant was decanted and poured into a chromatographic column. Sephadex G-25 (fine) was added in small amounts, allowing approximately 15 min after each addition for complete swelling. Sephadex addition was continued until all liquid was absorbed. The protein was eluted with 1 void volume of lysis buffer and eluate monitored at 280 nm optical density. The chromatographic procedure was repeated and an equal volume of glycerol was added to the final eluate.
Primary assay: After titration, the HSD II prep, generated with the standard protocol, was diluted to the appropriate concentration (generally 1/15 dilution). 55 μl of assay buffer (50 mM Hepes, pH 8.0) was added to all wells of a 96 well plate. 5 μl of 5% DMSO were added to wells A1-C1, A2-C2, F1-H1, and F2-H2. A 10 μl aliquot of a 10 mM solution in DMSO of each compound was diluted in 190 μl of assay buffer. The plate with these compound dilutions was then mixed for 15 min on a shaker and a 5 μl aliquot from each well was added to the […]. This was followed by 10 μl of HSD II enzyme ( 1/15 dilution)/estradiol mix in assay buffer containing 1% Triton X-100. The estradiol […] from a 20 mM estradiol DMSO stock solution, which was diluted 1/20 (50 μl/ml) in 50 mM Hepes buffer containing 1% Triton X-100. All wells, except F1-H1 and F2-H2, also received 10 μl of 25 mg/ml NAD (SIGMA) in 100 mM Hepes, pH 9. The blank wells F1-H1 and F2-H2 received 10 μl of NAD buffer. 20 μl of PMS:MTS solution (100 μl PMS into 1800 μl MTS, Promega) was added to all wells. The plate was covered with aluminum foil and incubated at room temperature for 1.5 h. The plate was analyzed at 490 nm on a Hewlett Pachard 8453 spectrophotometer and results were calculated.

[1] = read-out: IC50 values ≧2 μM and <10 μM

Compound | pIC50 (17-Beta HSD II Enzyme; [1]) | melting point | pIC50 (17-Beta HSD II Enzyme)
CN(C)c1ccc(-c2ccc([C@@H](O)[C@H]3[C@@H](c4ccccc4)CC(=O)N3C)s2)cc1F (racemic) [Example 28] | 5.00 to 5.70 | 173 °C | 
CN1C(=O)C[C@H](c2ccccc2)[C@@H]1[C@H](O)c1ccc(-c2cccs2)s1 (racemic) [Example 29] |  | 152 °C | > 6.30
COc1cccc(-c2ccc(C(O)C3C(c4ccccc4)CC(=O)N3C)s2)c1 (racemic) [Example 31] |  | 128 °C | > 6.30
CN1C(=O)C[C@H](c2ccccc2)[C@@H]1[C@H](O)c1ccc(-c2ccccc2C(F)(F)F)s1 (racemic) [Example 34] |  | 192 °C | > 6.30
CN1C(=O)C[C@H](c2ccccc2)[C@@H]1[C@H](O)c1ccc(S(=O)(=O)N2CCSCC2)s1 (racemic) [Example 35] |  | 197 to 199 °C | > 6.30
CN1C(=O)CC(c2ccccc2)C1C(O)c1ccc(S(=O)(=O)N2CCN(c3ccc(F)cc3)CC2)s1 (racemic) [Example 37] |  | 167 to 175 °C | > 6.30
Cc1sc([C@@H](O)[C@H]2[C@@H](c3ccccc3)CC(=O)N2C)cc1-c1ccccc1 (racemic) [Example 38] |  | 78 to 82 °C | > 6.30
Cc1cc(-c2ccccc2)c([C@@H](O)[C@H]2[C@@H](c3ccccc3)CC(=O)N2C)s1 (racemic) [Example 43] |  | 85 °C | > 6.30
CN1C(=O)CC(c2ccccc2)C1C(O)c1ccc(-c2cccc([N+](=O)[O-])c2)s1 (racemic) [Example 44] |  | 150 °C | > 6.30
Cc1c(C(O)C2C(c3ccccc3)CC(=O)N2C)sc2ccc(F)cc12 (racemic) [Example 53] |  | 175 to 177 °C | > 6.30
CN1C(=O)C[C@H](c2ccccc2)[C@@H]1[C@H](O)c1csc2ccccc12 (racemic) [Example 54] | 5.00 to 5.70 | > 210 °C | 
COc1ccc(S(=O)(=O)c2ccc([C@@H](O)[C@H]3[C@@H](c4ccccc4)CC(=O)N3C)s2)cc1 (racemic) [Example 58] |  | 203 to 205 °C | > 6.30
CN1C(=O)CC(c2ccccc2)C1C(O)c1ccc(S(=O)(=O)c2ccc(Cl)cc2)s1 (racemic) [Example 62] |  | 207 to 208 °C | > 6.30
CSc1ccc(-c2ccc([C@@H](O)[C@H]3[C@@H](c4ccccc4)CC(=O)N3C)s2)cc1 (racemic) [Example 69] | 5.00 to 5.70 | 187 °C | 
CN1C(=O)C[C@H](c2ccccc2)[C@@H]1[C@H](O)c1ccc(-c2ccccc2F)s1 (racemic) [Example 71] |  | 216 °C | > 6.30
Cc1ccc(-c2ccc([C@@H](O)[C@H]3[C@@H](c4ccccc4)CC(=O)N3C)s2)c(F)c1 (racemic) [Example 72] |  | 182 °C | > 6.30
CN1C(=O)C[C@H](c2ccccc2)[C@@H]1[C@H](O)c1ccc(-c2cccc(NS(C)(=O)=O)c2)s1 (racemic) [Example 73] |  | 199 °C | > 6.30
CN1C(=O)CC(c2ccccc2)C1C(O)c1ccc(-c2c(F)cccc2F)s1 (stereo not drawn) [Example 30] |  |  | > 6.30
CN1C(=O)CC(c2ccccc2)C1C(O)c1ccc(-c2ccc(Cl)cc2)s1 (stereo not drawn) [Example 51] |  |  | > 6.30

Now from value to compound:

pIC50 (17-Beta HSD II Enzyme; [1]) | melting point | pIC50 (17-Beta HSD II Enzyme) | Compound
 | 210 °C | > 6.30 | CN1C(=O)CC(c2ccccc2)C1C(O)c1ccc(-c2cccnc2)s1 (racemic) [Example 78]
 | 219 to 220 °C (dec.) | > 6.30 | CN1C(=O)C[C@H](c2ccccc2F)[C@@H]1[C@H](O)c1ccc(-c2ccccc2)s1 (racemic) [Example 83]
 | 195 °C | > 6.30 | CN1C(=O)C[C@H](c2cccc(F)c2)[C@@H]1[C@H](O)c1ccc(-c2ccc(F)cc2)s1 (racemic) [Example 85]
 | 232 °C | > 6.30 | CN1C(=O)C[C@H](c2ccccc2F)[C@@H]1[C@H](O)c1ccc(S(=O)(=O)c2ccccc2)s1 (racemic) [Example 89]
 | 160 °C | > 6.30 | COc1ccccc1[C@H]1CC(=O)N(C)[C@H]1[C@H](O)c1ccc(S(=O)(=O)c2ccccc2)s1 (racemic) [Example 91]
5.00 to 5.70 | 255 to 256 °C |  | CN1C(=O)C[C@H](c2ccccc2)[C@@H]1[C@H](O)c1cccc2ccccc12 (racemic) [Example 94]
 | 173 to 176 °C | > 6.30 | CN1C(=O)C[C@H](c2ccccc2)[C@@H]1[C@H](O)c1cccc(-c2ccccc2)c1 (racemic) [Example 98]
5.00 to 5.70 | 210 °C |  | CN1C(=O)C[C@H](c2ccccc2)[C@@H]1[C@H](O)c1cccc(-c2ccc(F)cc2)c1 (racemic) [Example 104]
5.00 to 5.70 | 183 °C |  | CN1C(=O)C[C@H](c2ccccc2)[C@@H]1[C@H](O)c1cccc(-c2cccc([N+](=O)[O-])c2)c1 (racemic) [Example 106]
5.00 to 5.70 | 183 °C |  | CSc1ccc(-c2ccc([C@@H](O)[C@H]3[C@@H](c4ccccc4)CC(=O)N3C)o2)cc1 (racemic) [Example 116]
5.00 to 5.70 | 194 °C |  | CN1C(=O)C[C@H](c2ccccc2)[C@@H]1[C@H](O)c1ccc(-c2ccc(C(=O)O)cc2)o1 (racemic) [Example 118]
5.00 to 5.70 | 193 °C |  | CC(=O)Nc1cccc(-c2ccc([C@@H](O)[C@H]3[C@@H](c4ccccc4)CC(=O)N3C)o2)c1 (racemic) [Example 121]
 | 139 to 140 °C | > 6.30 | CN1C(=O)C[C@H](c2ccccc2)[C@@H]1[C@H](O)C#Cc1ccccc1Cl (racemic) [Example 126]
5.00 to 5.70 | 217 to 218 °C |  | CN1C(=O)C[C@H](c2ccccc2)[C@@H]1[C@H](O)C#CCN1CCS(=O)(=O)CC1 (racemic) [Example 130]
 | 175 to 176 °C | > 6.30 | Cc1ccc(C)n1-c1cccc(C#C[C@@H](O)[C@H]2[C@@H](c3ccccc3)CC(=O)N2C)c1 (racemic) [Example 131]
 | 205 to 207 °C | > 6.30 | CN1C(=O)CC(c2ccccc2)C1C(O)C#Cc1cccc(N)c1 (racemic) [Example 133]
5.00 to 5.70 | 217 to 218 °C |  | CN1C(=O)C[C@H](c2ccccc2)[C@@H]1[C@H](O)C#Cc1ccc(-c2ccccc2)cc1 (racemic) [Example 136]
 |  | > 6.30 | CN1C(=O)CC(c2ccccc2)C1C(O)C#Cc1ccccc1F (stereo not drawn) [Example 127]
 |  | > 6.30 | CN1C(=O)C[C@H](c2ccccc2)[C@@H]1[C@H](O)c1ccc(-c2ccc(F)cc2)s1 [Example 146]
 |  | > 6.30 | CN1C(=O)C[C@H](c2ccccc2)[C@@H]1[C@H](O)c1ccc(-c2ccccn2)s1 [Example 147]
 |  | > 6.30 | CN1C(=O)C[C@H](c2ccccc2)[C@@H]1[C@H](O)c1ccc(-c2cccnc2)s1 [Example 148]
 |  | > 6.30 | CN1C(=O)C[C@H](c2ccccc2)[C@@H]1[C@H](O)c1ccc(S(=O)(=O)c2ccccc2)s1 [Example 149]
